Target: T1, S100P (Homo sapiens, UniProt P25815)
T1 construct: 15N-labeled human S100P (95 amino acid residues)
T1 sequence (P25815 1-95): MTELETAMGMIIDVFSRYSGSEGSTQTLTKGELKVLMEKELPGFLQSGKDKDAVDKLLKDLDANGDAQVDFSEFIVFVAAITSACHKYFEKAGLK
Assay: 1H-15N HSQC NMR titration (chemical shift perturbation)
Format: binding

N=C(N)c1ccc(OCCCCCOc2ccc(C(=N)N)cc2)cc1 [pentamidine]
Kd: 48.7 µM

— PMC8145327, “S100P Interacts with p53 while Pentamidine Inhibits This Interaction” (Biomolecules, 2021)
